We go through six compounds from patent publication US20090069336A1, “PYRIMIDOTHIOPHENE COMPOUNDS” (VERNALIS (CAMBRIDGE) LIMITED., priority 2004, published 2009).

Some results are limits rather than exact numbers.

T1 sequence (P08238 whole entry): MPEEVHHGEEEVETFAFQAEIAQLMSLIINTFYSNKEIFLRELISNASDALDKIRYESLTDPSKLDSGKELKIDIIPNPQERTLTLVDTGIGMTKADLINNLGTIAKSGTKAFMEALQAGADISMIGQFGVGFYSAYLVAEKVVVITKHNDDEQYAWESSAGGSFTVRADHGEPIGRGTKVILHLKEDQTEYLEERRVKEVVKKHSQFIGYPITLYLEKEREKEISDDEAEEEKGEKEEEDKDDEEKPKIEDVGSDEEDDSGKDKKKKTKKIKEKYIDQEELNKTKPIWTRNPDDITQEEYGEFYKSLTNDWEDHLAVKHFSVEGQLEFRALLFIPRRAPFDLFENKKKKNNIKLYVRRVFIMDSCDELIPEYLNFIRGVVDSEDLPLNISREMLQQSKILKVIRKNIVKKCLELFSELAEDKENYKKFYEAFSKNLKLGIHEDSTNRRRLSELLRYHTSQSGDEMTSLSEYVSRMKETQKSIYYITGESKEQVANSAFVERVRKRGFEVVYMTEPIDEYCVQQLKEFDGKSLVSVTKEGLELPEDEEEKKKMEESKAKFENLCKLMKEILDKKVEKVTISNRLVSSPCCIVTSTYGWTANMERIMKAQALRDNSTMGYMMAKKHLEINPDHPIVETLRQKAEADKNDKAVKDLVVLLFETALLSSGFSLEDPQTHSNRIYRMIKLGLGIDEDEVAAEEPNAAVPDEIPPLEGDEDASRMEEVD

Tested on in one experiment: not listed separately
In words: Sulforhodamine B (SRB) growth inhibition / growth arrest assay. Format: cell-based. The conditions noted are these: cell line not stated. As for the experimental part: A growth inhibition assay was also employed for the evaluation of candidate HSP90 inhibitors:
Assessment of cytotoxicity by Sulforhodamine B (SRB) assay: calculation of 50% inhibitory concentration (IC50).
• 1) Determine cell number by haemocytometer. • 2) Using an 8 channel multipipettor, add 160 μl of the cell suspension (3600 cells/well or 2×10^4 cells/ml) to each well of a 96-well microtitre plate. • 3) Incubate overnight at 37° C. in a CO2 incubator. […]
• 8) Tip off medium into sink and immerse plate slowly into 10% ice cold trichloroacetic acid (TCA). […] Leave for 15 mins. • 12) Wash off unbound SRB stain with four washes of 1% acetic acid. • 13) Dry plates in incubator. • 14) Solubilise SRB using 100 μl of 10 mM Tris base and put plates on plate shaker for 5 mins. • 15) Determine absorbance at 540 nm using a plate reader. Calculate mean absorbance for quadruplicate wells and express as a percentage of value for control, untreated wells. • 16) Plot % absorbance values versus log drug concentration and determine the IC50.
`Cc1ccc(-c2nc(N)nc3sc(-c4ncon4)cc23)c(C)c1` [Example 10, 4-(2,4-dimethyl-phenyl)-6-[1,2,4]oxadiazol-3-yl-thieno[2,3-d]pyrimidin-2-ylamine] had an IC50 of less than 50 µM.

The next experiment concerns the target T1, human full-length HSP90 (Homo sapiens, UniProt P08238).
T1 construct: E. coli expressed human full-length HSP90 protein, purified >95%; made in house; host or cells: E. coli
In words: Fluorescence polarization assay (competitive displacement of probe RBT0051001-FAM from HSP90). Format: binding. The conditions noted are these: activity range stated in each example; read-out: activity in the fluorescence polarization assay. The source says: Fluorescence Polarization Assay
Fluorescence polarization {also known as fluorescence anisotropy} measures the rotation of a fluorescing species in solution, where the larger molecule the more polarized the fluorescence emission. When the fluorophore is excited with polarized light, the emitted light is also polarized. The molecular size is proportional to the polarization of the fluorescence emission.
The fluoroscein-labelled probe —RBT0051001-FAM—
binds to HSP90 {full-length human, full-length yeast or N-terminal domain HSP90} and the anisotropy {rotation of the probe:protein complex} is measured.
Test compound is added to the assay plate, left to equilibrate and the anisotropy measured again. Any change in anisotropy is due to competitive binding of compound to HSP90, thereby releasing probe.
Chemicals are of the highest purity commercially available and all aqueous solutions are made up in AR water. • 1) Costar 96-well black assay plate #3915 • 2) Assay buffer of (a) 100 mM Tris pH7.4; (b) 20 mM KCl; (c) 6 mM MgCl2. Stored at room temperature. • 3) BSA (bovine serum albumen) 10 mg/ml (New England Biolabs # B9001S) • 4) 20 mM probe in 100% DMSO stock concentration. Stored in the dark at RT. Working concentration is 200 nM diluted in AR water and stored at 4° C. Final concentration in assay 80 nM. • 5) E. coli expressed human full-length HSP90 protein, purified >95% (see, e.g., Panaretou et al., 1998) and stored in 50 μL aliquots at −80° C.
• 1) Add 100 μl 1× buffer to wells 11A and 12A (=FP BLNK) • 2) Prepare assay mix—all reagents are kept on ice with a lid on the bucket as the probe is light-sensitive.
• 3) Aliquot 100 μl assay mix to all other wells • 4) Seal plate and leave in dark at room temp for 20 minutes to equilibrate Compound Dilution Plate—1×3 dilution series • 1) In a clear 96-well v-bottom plate-{# VWR 007/008/257} add 10 μl 100% DMSO to wells B1 to H11 • 2) To wells A1 to A11 add 17.5 μl 100% DMSO • 3) Add 2.5 μl cpd to A1. This gives 2.5 mM {50×} stock cpd-assuming cpds 20 mM. • 4) Repeat for wells A2 to A10. Control in columns 11 and 12. • 5) Transfer 5 μl from row A to row B—not column 12. Mix well. • 6) Transfer 5 μl from row B to row C. […] In column 11 {provides standard curve} only add compound B11-H11. Add 2 μl of 100 mM standard cpd to wells B12-H12 {is positive control} • 13) The Z′ factor is calculated from zero controls and positive wells. It typically gives a value of 0.7-0.9.
The compounds tested in the above assay were assigned to one of two activity ranges, namely A=<10 μM; B=>10 μM, and those assignments are reported above.
With `Cc1ccc(-c2nc(N)nc3sc(-c4ncon4)cc23)c(C)c1` [Example 10, 4-(2,4-dimethyl-phenyl)-6-[1,2,4]oxadiazol-3-yl-thieno[2,3-d]pyrimidin-2-ylamine], the IC50 was less than 10 µM.
Turning to `Nc1nc(-c2cc(OCc3ccccc3)c(Cl)cc2Cl)c2cc(C(=O)O)sc2n1` [Example 37, 2-Amino-4-[5-benzyloxy-2,4-dichloro-phenyl]-thieno[2,3-d]pyrimidine-6-carboxylic acid], the IC50 was less than 10 µM.
As for `Nc1nc(-c2ccc(Cl)cc2Cl)c2cc(-c3n[nH]c(N)n3)sc2n1` [Example 38, 6-(5-Amino-1H-[1,2,4]triazol-3-yl)-4-(2,4-dichloro-phenyl)-thieno[2,3-d]pyrimidin-2-ylamine], the IC50 is less than 10 µM.
For `CCN(CC)CCOc1cc(-c2nc(N)nc3sc(-c4n[nH]c(N)n4)cc23)c(Cl)cc1Cl` [Example 39, 6-(5-Amino-1H-[1,2,4]triazol-3-yl)-4-[2,4-dichloro-5-(2-diethylamino-ethoxy)-phenyl]-thieno[2,3-d]pyrimidin-2-ylamine], the IC50 was less than 10 µM.
As to `CCN(CC)CCOc1cc(-c2nc(N)nc3sc(-c4nn[nH]n4)cc23)c(Cl)cc1Cl` [Example 40, 4-[2,4-Dichloro-5-(2-diethylamino-ethoxy)-phenyl]-6-(2H-tetrazol-5-yl)-thieno[2,3-d]pyrimidin-2-ylamine], the IC50 is less than 10 µM.
Same read-out and setting: then `CCOC(=O)/C=C/c1cc2c(-c3cc(OCCN(CC)CC)c(Cl)cc3Cl)nc(N)nc2s1` [Example 41, 3-{2-Amino-4-[2,4-Dichloro-5-(2-diethylamino-ethoxy)-phenyl]-thieno[2,3-d]pyrimidin-6-yl}-acrylic acid ethyl ester], with less than 10 µM.
